This passage reports T/C results from PubChem BioAssay AID298 (DTP/NCI, 2004).

Where “and” joins values, the source holds several entries; their conditions need not be identical. Equal values may be shown once. Records with an inconclusive call do not appear.

The test system of the assay is MX-1 breast xenograft, intrarenal, nude mice, tumor weight. In words: NCI In Vivo Anticancer Drug Screen. Data for tumor model Human Mammary Carcinoma MX-1 Xenograft (intrarenal inoculation) in NU/NU BALB/C (nude) mice. The conditions noted are these: endpoint: mean tumor weight change, higher = larger tumour. Summed up:
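Transplantable tumors established in mice; animals dosed with compound or vehicle; survival or tumor size then recorded. Result reported as treated (T) divided by vehicle control (C).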
A general note: Xenograft models place foreign cells or tissue in a host animal.

Where [1] appears, read: dose: 150.0 mg/kg/injection, schedule: Q04DX003 (sc), vehicle: saline.
The mark [2] stands for this setting: dose: 150.0 mg/kg/injection, schedule: Q04DX003 (ip), vehicle: saline with Tween-80.
[3] abbreviates: dose: 300.0 mg/kg/injection, schedule: Q04DX003 (ip), vehicle: saline with Tween-80.

As for `CC(C)C(N)C(=O)Nc1nncs1` (stereo not given), the T/C was 73 % of control under setting [1]; 77 % of control (dose: 300.0 mg/kg/injection, schedule: Q04DX003 (sc), vehicle: saline); 86 % of control (dose: 600.0 mg/kg/injection, schedule: Q04DX003 (sc), vehicle: saline); 46 % of control (dose: 1200.0 mg/kg/injection, schedule: Q04DX003 (sc), vehicle: saline).
As to `CC1=CCCC2C1(C)CCC(C)C2(C)Cc1cc(O)ccc1O` (stereo not given), the T/C by setting is: (dose: 12.5 mg/kg/injection, schedule: Q04DX003 (ip), vehicle: Klucel (hydroxypropylcellulose) (HPC)) 84 % of control; (dose: 25.0 mg/kg/injection, schedule: Q04DX003 (ip), vehicle: Klucel (hydroxypropylcellulose) (HPC)) 76 % of control; (dose: 50.0 mg/kg/injection, schedule: Q04DX003 (ip), vehicle: Klucel (hydroxypropylcellulose) (HPC)) 86 % of control; (dose: 100.0 mg/kg/injection, schedule: Q04DX003 (ip), vehicle: Klucel (hydroxypropylcellulose) (HPC)) 66 % of control.
Regarding `O=C1CC2(C(=O)N1CN1CCOCC1)c1ccccc1-c1ccccc12`, the T/C is 97 % of control (dose: 300.0 mg/kg/injection, schedule: Q04DX003 (ip), vehicle: Klucel (hydroxypropylcellulose) (HPC)) and 72 % of control (dose: 600.0 mg/kg/injection, schedule: Q04DX003 (ip), vehicle: Klucel (hydroxypropylcellulose) (HPC)).
As to `Nc1ncnc2c1ncn2C1OC(CO)C(O)C1O` (stereo not given), the T/C under setting [1] was 3 % of control and 23 % of control.
As for `CC1(C)N=C(N)N=C(N)N1c1ccc(F)c(C(F)(F)F)c1`, the T/C is, setting by setting: (dose: 6.25 mg/kg/injection, schedule: Q01DX010 (sc), vehicle: saline) 97 % of control; (dose: 12.5 mg/kg/injection, schedule: Q01DX010 (sc), vehicle: saline) 85 % of control; (dose: 25.0 mg/kg/injection, schedule: Q01DX010 (sc), vehicle: saline) 64 % of control.
Regarding `CCC1OC(OC)C=CC1=O` (stereo not given), the T/C (dose: 18.75 mg/kg/injection, schedule: Q04DX003 (sc), vehicle: saline) was 112 % of control; the T/C (dose: 37.5 mg/kg/injection, schedule: Q04DX003 (sc), vehicle: saline) is 63 % of control; the T/C (dose: 75.0 mg/kg/injection, schedule: Q04DX003 (sc), vehicle: saline) was 98 % of control.
For the compound `COC(=O)c1ccc(N=NN(C)COC(C)=O)cc1`, the T/C is 50 % of control (dose: 60.0 mg/kg/injection, schedule: Q04DX003 (ip), vehicle: Klucel (hydroxypropylcellulose) (HPC)); 21 % of control (dose: 120.0 mg/kg/injection, schedule: Q04DX003 (ip), vehicle: Klucel (hydroxypropylcellulose) (HPC)); 56 % of control and 58 % of control (dose: 400.0 mg/kg/injection, schedule: Q04DX003 (ip), vehicle: Klucel (hydroxypropylcellulose) (HPC)); 33 % of control and 40 % of control (dose: 666.67 mg/kg/injection, schedule: Q04DX003 (ip), vehicle: Klucel (hydroxypropylcellulose) (HPC)).
As to `CN(C)CCC(=O)C(=Cc1ccc(O)cc1)C(=O)CCN(C)C`, the T/C was 90 % of control (dose: 75.0 mg/kg/injection, schedule: Q04DX003 (ip), vehicle: saline) and 124 % of control (dose: 150.0 mg/kg/injection, schedule: Q04DX003 (ip), vehicle: saline).
Turning to `Nc1n[nH]c2ccccc12`, the T/C is 93 % of control (dose: 300.0 mg/kg/injection, schedule: Q04DX003 (ip), vehicle: other) and 108 % of control (dose: 600.0 mg/kg/injection, schedule: Q04DX003 (ip), vehicle: other).
Consider `N#Cc1ccc(NN=O)nc1`, for which the T/C is, setting by setting: (dose: 12.5 mg/kg/injection, schedule: Q04DX003 (ip), vehicle: other) 95 % of control; (dose: 12.5 mg/kg/injection, schedule: Q04DX003 (ip), vehicle: water) 38 % of control and 41 % of control; (dose: 25.0 mg/kg/injection, schedule: Q04DX003 (ip), vehicle: other) 20 % of control; (dose: 25.0 mg/kg/injection, schedule: Q04DX003 (ip), vehicle: water) 7 % of control and 9 % of control; (dose: 50.0 mg/kg/injection, schedule: Q04DX003 (ip), vehicle: other) 4 % of control; (dose: 50.0 mg/kg/injection, schedule: Q04DX003 (ip), vehicle: water) 1 % of control and 12 % of control. The T/C reads like this: (dose: 100.0 mg/kg/injection, schedule: Q04DX003 (ip), vehicle: other) -92 % of control; (dose: 100.0 mg/kg/injection, schedule: Q04DX003 (ip), vehicle: water) -86 % of control.
With `O=C[C@@H](CO)O[C@H](C=O)n1cnc2c(=O)[nH]cnc21`, the T/C is 73 % of control (dose: 100.0 mg/kg/injection, schedule: Q04DX003 (sc), vehicle: saline with Tween-80); 35 % of control (dose: 200.0 mg/kg/injection, schedule: Q04DX003 (sc), vehicle: saline with Tween-80); -63 % of control (dose: 400.0 mg/kg/injection, schedule: Q04DX003 (sc), vehicle: saline with Tween-80).
With `C=C1COC(O)(C2OCOC(C3CC(=O)NC(=O)C3)C2O)C1C` (stereo not given), the T/C (dose: 37.5 micrograms/kg/injection, schedule: Q04DX003 (ip), vehicle: water) is 117 % of control.
`CNNCc1ccc(C(=O)NC(C)C)cc1`: the T/C reads like this: (dose: 50.0 mg/kg/injection, schedule: Q01DX010 (sc), vehicle: saline) 97 % of control; (dose: 100.0 mg/kg/injection, schedule: Q01DX010 (sc), vehicle: saline) 70 % of control; (dose: 200.0 mg/kg/injection, schedule: Q01DX010 (sc), vehicle: saline) 45 % of control; (dose: 400.0 mg/kg/injection, schedule: Q01DX010 (sc), vehicle: saline) 4 % of control.
In the case of `CC1[C@@H]2CC=C3[C@H]4CCC5Cc6nc7c(nc6C[C@@]5(C)C4CC(=O)[C@]32CO[C@]12OC(C)(C)CC2O)CC1CC[C@@H]2C3=C[C@H]4O[C@@]5(O[C@@](C)(CO)C[C@@H]5O)C(C)[C@@]4(O)[C@]3(C)[C@@H](O)CC2[C@]1(C)C7` (stereo not given in full), the T/C (dose: 12.5 micrograms/kg/injection, schedule: Q04DX003 (ip), vehicle: saline + alcohol) is 123 % of control; the T/C (dose: 25.0 micrograms/kg/injection, schedule: Q04DX003 (ip), vehicle: saline + alcohol) was 78 % of control; the T/C (dose: 50.0 micrograms/kg/injection, schedule: Q04DX003 (ip), vehicle: saline + alcohol) was 118 % of control; the T/C (dose: 100.0 micrograms/kg/injection, schedule: Q04DX003 (ip), vehicle: saline + alcohol) is 100 % of control.
Regarding `CCC12C[N+]3([O-])CCc4c([nH]c5ccccc45)C(C(=O)OC)(c4cc5c(cc4OC)N(C)C4C(O)(C(=O)OC)C(OC(C)=O)C6(CC)C=CCN7CCC54C76)CC(C3)C1O2` (stereo not given), the T/C is, setting by setting: (dose: 80.0 mg/kg/injection, schedule: Q04DX003 (sc), vehicle: water) 109 % of control; (dose: 160.0 mg/kg/injection, schedule: Q04DX003 (sc), vehicle: water) 117 % of control; (dose: 320.0 mg/kg/injection, schedule: Q04DX003 (sc), vehicle: water) 123 % of control; (dose: 640.0 mg/kg/injection, schedule: Q04DX003 (sc), vehicle: water) 88 % of control.
On to `CNC(=O)Sc1ccc(C)c(N(C)C)c1`, for which the T/C is 92 % of control under setting [2] and 44 % of control under setting [3].
With `CCCCN1C(=O)N(c2ccc(OCC)cc2)C2N(CCCC)C1C(C)(C)C2(C)C` (stereo not given), the T/C (dose: 15.0 mg/kg/injection, schedule: Q04DX003 (ip), vehicle: saline with Tween-80) is 90 % of control; the T/C (dose: 30.0 mg/kg/injection, schedule: Q04DX003 (ip), vehicle: saline with Tween-80) is 77 % of control; the T/C (dose: 60.0 mg/kg/injection, schedule: Q04DX003 (ip), vehicle: saline with Tween-80) is 89 % of control; the T/C (dose: 240.0 mg/kg/injection, schedule: Q04DX003 (ip), vehicle: saline with Tween-80) was 98 % of control.
As for `CC1=C/C(O)CC(=O)Cc2nc(co2)C(=O)N2CCC=C2C(=O)OC(C(C)C)C(C)/C=C\C(=O)NC/C=C\1` (stereo not given), the T/C reads like this: (dose: 600.0 mg/kg/injection, schedule: Q04DX003 (sc), vehicle: Klucel (hydroxypropylcellulose) (HPC)) 104 % of control; (dose: 1200.0 mg/kg/injection, schedule: Q04DX003 (sc), vehicle: Klucel (hydroxypropylcellulose) (HPC)) 92 % of control; (dose: 2400.0 mg/kg/injection, schedule: Q04DX003 (sc), vehicle: Klucel (hydroxypropylcellulose) (HPC)) 88 % of control.
Turning to `COc1c(C=O)c2c(c(OC)c1OC)-c1ccc(OC)c(=O)cc1[C@@H](NC(C)=O)CC2`, the T/C was 62 % of control (dose: 9.37 mg/kg/injection, schedule: Q04DX003 (sc), vehicle: Klucel (hydroxypropylcellulose) (HPC)); 40 % of control (dose: 18.75 mg/kg/injection, schedule: Q04DX003 (sc), vehicle: Klucel (hydroxypropylcellulose) (HPC)); 13 % of control (dose: 37.5 mg/kg/injection, schedule: Q04DX003 (sc), vehicle: Klucel (hydroxypropylcellulose) (HPC)).
Turning to `O=C1c2ccccc2C(Cl)(c2ccc(Cl)cc2)c2ccc(Cl)cc21` (stereo not given), the T/C was 53 % of control under setting [2]; 60 % of control under setting [3]; 48 % of control (dose: 600.0 mg/kg/injection, schedule: Q04DX003 (ip), vehicle: saline with Tween-80); 30 % of control (dose: 1200.0 mg/kg/injection, schedule: Q04DX003 (ip), vehicle: saline with Tween-80).
